We go through 13 compounds from US11617777B2, “Cytotoxic and anti-mitotic compounds, and methods of using the same” (ZYMEWORKS BC INC., priority 2013, dated 2023).

Structures are written as SMILES. Where two headings read alike, the source gives them in different places.

One may read the EC50 as the concentration needed to bring the measured effect to its halfway point.

Holding throughout (assay): Cytotoxicity of compounds, CellTiter-Glo
A general note: In ATP-based viability assays light output follows the ATP content of the culture.

For one test, the system named is HPAF-II. The test is classed as cell-based. The note with it: Homo sapiens, Table 5, read-out: Cytotoxicity (EC50) HPAF-II. The source says:
(§1) FIG. 1 summarizes the data for compounds A, B, C, D, and E when tested using the Human mammary carcinoma cell line HCC1954 or Human T-cell leukemia cell line Jurkat. FIGS. 2-6 show the cytotoxicity data plots for individual compounds A-E. Tables 2-6 summarize the results of additional cytotoxicity assays.
(§2) Cell lines used: Human T-cell leukemia cell line Jurkat (ATCC: TIB-152); HCC1954 (ATCC: CRL. 2338); Human Pancreatic cells lines: AsPC-1 (ATCC: CRL-1682), BxPC-3 (ATCC: CRL.1687), HPAF-II (ATCC: CRL.1997), MiaPaCa2 (ATCC: CRL.1420), PANC-1 (ATCC: CRL.1469), Capan-1 (ATCC: HTB-79), Capan-2 (ATCC: HTB-80) and the Human gastric carcinoma cell line NCI-N87 (ATCC: CRL. 5822); AML-193 (ATCC: CRL.9589), CCRF-CEM (ATCC: CCL-119), DU145 (ATCC: HTB-81), PC-3 (ATCC: CRL.1435), A-431 (ATCC: CRL.1555), HT-29 (ATCC: HTB-38), A-172 (ATCC: CRL.1620), NCI-H358 (ATCC: CRL.5807), A549 (ATCC: CCL-185), Colo-205 (ATCC: CCL-222), MDA-MB-231 (ATCC: HTB-26), OVCAR-3 (ATCC: HTB-161), OV-90 (ATCC: CRL.11732), OE19 (Sigma: 96071721), RT 112/84 (Sigma: 85061106).
(§3) On the day prior to adding compounds, HCC1954 AsPC-1, BxPC-3, HPAF-II, MiaPaCa2, PANC-1, Capan-1, Capan-2 and NCI-N87 cells were added to opaque-walled 96-well tissue culture-treated microtiter plates using complete growth medium at a density of 2500 cells/100 microlitre (uL) of medium. These adherant cell lines cells were incubated for one night at 37° C./5% CO2 to allow the cells to attach to the microtiter plate surface. On the day that compounds were added, Jurkat cells are added to separate 96-well microtiter plates at 2500 cells/100 uL using the same growth medium as HCC1954. Compound were first serially diluted using dimethyl sulfoxide, and then the prepared dilutions are added to complete growth medium at five-times the final concentration—compounds were then titrated 1:3, eight steps. A control with no compound (growth medium alone) was included on each microtiter plate in sextuplicate. The prepared compounds titrations were added (twenty-five uL/well) in triplicate. The cells and compound titrations were incubated at 37° C./5% CO2 for three nights. After the incubation, cell viability is measured using CellTiter-Glo® reagent by adding thirty uL of prepared CellTiter-Glo® to each assay well. The assay is incubated for at least twenty minutes in the dark prior to measuring emitted luminescence using a microplate luminometer (500 ms integration time). The collected relative luminescence units (RLU) are converted to % cytotoxicity using the Growth medium alone control mentioned above (% Cytotoxicity=1−[Well RLU/average medium alone control RLU]).
(§4) GraphPad Prism was used for generation of EC50 values using three parameter non-linear regression curve fitting.

The next test concerns BxPC-3. The test is classed as cell-based. The note with it: Homo sapiens, Table 5, read-out: Cytotoxicity (EC50) BxPC-3.
Excerpt: as §1, §2, §3, §4

The subject of the next test is MiaPaCa2. The test is classed as cell-based. The note with it: Homo sapiens, MIA PaCa-2; Table 5; MinPaCa2; read-out: Cytotoxicity (EC50) MinPaCa2.
Excerpt: as §1, §2, §3, §4

Another test has as its system PANC-1. The test is classed as cell-based. The following applies: Homo sapiens, Table 5, read-out: Cytotoxicity (EC50) PANC-1.
Excerpt: as §1, §2, §3, §4

The next test deals with AsPC-1. The test is classed as cell-based. The note with it: Homo sapiens, ASPC1, Table 5, read-out: Cytotoxicity (EC50) AsPC-1.
Excerpt: as §1, §2, §3, §4

Another test concerns HCC1954 cells. The test is classed as cell-based. The following applies: Homo sapiens.
Excerpt: as §2, §3, §4

For another test, the system named is Jurkat cells. The test is classed as cell-based, Human. In short, it runs like this: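 HCC1954 plated at 2500 cells/100 uL and attached overnight; Jurkat plated at 2500 cells/100 uL on the day of dosing. Cells exposed to 8-step 1:3 compound titrations for three nights at 37° C./5% CO2, in triplicate. CellTiter-Glo luminescence converted to % cytotoxicity versus medium-only control; EC50 by three-parameter nonlinear regression.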

[1] abbreviates: HCC1954, Table 4, Cytotoxicity of Compounds on HCC-1954 Cells, read-out: EC50.
[2] abbreviates: Homo sapiens, Jurkat, Table 3, Cytotoxicity of Compounds on Jurkat Cells, read-out: EC50.
Setting [3] is: Homo sapiens, Jurkat, Table 6, Compound Cytotoxicity on Jurkat, read-out: EC50.
Where [4] appears, read: Homo sapiens, Jurkat, Table 7, Cytotoxicity on Jurkat, read-out: EC50.

With `CN[C@H](C(=O)N[C@H](C(=O)N(C)[C@H](/C=C(\C)C(=O)NS(=O)(=O)c1ccc(C2(N)CC2)cc1)C(C)C)C(C)(C)C)C(C)(C)c1ccccc1` [Compound 63, (S,E)-N-(4-(1-aminocyclopropyl)phenylsulfonyl)-2,5-dimethyl-4-((S)—N,3,3-trimethyl-2-((S)-3-methyl-2-(methylamino)-3-phenylbutanamido)butanamido) hex-2-enamide], the EC50 with HPAF-II was 0.826 nM; in the test on BxPC-3, 0.697 nM; in the test on MiaPaCa2, 1.02 nM; in the test on PANC-1, 4 nM; in the test on AsPC-1, 0.97 nM.

In the case of `CN[C@H](C(=O)N[C@H](C(=O)N(C)[C@H](/C=C(\C)C(=O)NS(=O)(=O)Cc1ccc(NC(=O)C(F)(F)F)cc1)C(C)C)C(C)(C)C)C(C)(C)c1ccccc1` [Compound 79, (S,E)-2,5-dimethyl-N-(4-(2,2,2-trifluoroacetamido)benzylsulfonyl)-4-((S)—N,3,3-trimethyl-2-((S)-3-methyl-2-(methylamino)-3-phenylbutanamido)butanamido)hex-2-enamide], the EC50 with HCC1954 cells (setting [1]) stood at 0.241 nM; with Jurkat cells (setting [2]) it was 0.386 nM.

Turning to `CN[C@H](C(=O)N[C@H](C(=O)N(C)[C@H](/C=C(\C)C(=O)NS(=O)(=O)Cc1ccc(N)cc1)C(C)C)C(C)(C)C)C(C)(C)c1ccccc1` [Compound 80, (S,E)-N-(4-aminobenzylsulfonyl)-2,5-dimethyl-4-((S)—N,3,3-trimethyl-2-((S)-3-methyl-2-(methylamino)-3-phenylbutanamido)butanamido)hex-2-enamide], the EC50 with HCC1954 cells (setting [1]) is 0.207 nM; in the test with Jurkat cells (setting [2]), 0.389 nM.

Regarding `CN[C@H](C(=O)N[C@H](C(=O)N(C)[C@H](/C=C(\C)C(=O)NS(=O)(=O)Cc1ccccc1C#N)C(C)C)C(C)(C)C)C(C)(C)c1ccccc1` [Compound 105, (S,E)-N-(2-cyanobenzylsulfonyl)-2,5-dimethyl-4-((S)—N,3,3-trimethyl-2-((S)-3-methyl-2-(methylamino)-3-phenylbutanamido)butanamido)hex-2-enamide], the EC50 in the test with Jurkat cells (setting [3]) is 0.731 nM; with Jurkat cells (Table 6, Compound Cytotoxicity on Jurkat, read-out: EC50), 0.753 nM.

In the case of `CCc1cc(N)ccc1S(=O)(=O)NC(=O)/C(C)=C/[C@H](C(C)C)N(C)C(=O)[C@@H](NC(=O)[C@@H](NC)C(C)(C)c1ccccc1)C(C)(C)C` [Compound 107, (S,E)-N-(4-amino-2-ethylphenylsulfonyl)-2,5-dimethyl-4-((S)—N,3,3-trimethyl-2-((S)-3-methyl-2-(methylamino)-3-phenylbutanamido)butanamido)hex-2-enamide], the EC50 in the test with Jurkat cells (setting [3]) and in the test with Jurkat cells (setting [4]) was 0.043 nM each time.

Take `CN[C@H](C(=O)N[C@H](C(=O)N(C)[C@H](/C=C(\C)C(=O)NS(=O)(=O)c1ccc(N)c(OC(F)(F)F)c1)C(C)C)C(C)(C)C)C(C)(C)c1ccccc1` [Compound 108, (S,E)-N-(4-amino-3-(trifluoromethoxy)phenylsulfonyl)-2,5-dimethyl-4-((S)—N,3,3-trimethyl-2-((S)-3-methyl-2-(methylamino)-3-phenylbutanamido)butanamido)hex-2-enamide]: the EC50 in the test on Jurkat cells (setting [3]) and in the test on Jurkat cells (setting [4]) was 0.017 nM throughout.

Regarding `CN[C@H](C(=O)N[C@H](C(=O)N(C)[C@H](/C=C(\C)C(=O)NS(=O)(=O)c1ccc(N)c(C)c1C)C(C)C)C(C)(C)C)C(C)(C)c1ccccc1` [Compound 109, (S,E)-N-(4-amino-2,3-dimethylphenylsulfonyl)-2,5-dimethyl-4-((S)—N,3,3-trimethyl-2-((S)-3-methyl-2-(methylamino)-3-phenylbutanamido)butanamido) hex-2-enamide], the EC50 in the test on Jurkat cells (setting [3]) and in the test with Jurkat cells (setting [4]) was 0.087 nM throughout.

Consider `CN[C@H](C(=O)N[C@H](C(=O)N(C)[C@H](/C=C(\C)C(=O)NS(=O)(=O)c1ccc(N)c2c1CCCC2)C(C)C)C(C)(C)C)C(C)(C)c1ccccc1` [Compound 110, (S,E)-N-(4-amino-5,6,7,8-tetrahydronaphthalen-1-ylsulfonyl)-2,5-dimethyl-4-((S)—N,3,3-trimethyl-2-((S)-3-methyl-2-(methylamino)-3-phenylbutanamido)butanamido)hex-2-enamide], for which the EC50 in the test with Jurkat cells (setting [3]) and in the test with Jurkat cells (setting [4]) was 0.031 nM throughout.

As to `CN[C@H](C(=O)N[C@H](C(=O)N(C)[C@H](/C=C(\C)C(=O)NS(=O)(=O)c1ccc(N)c(C)c1)C(C)C)C(C)(C)C)C(C)(C)c1ccccc1` [Compound 111, (S,E)-N-(4-amino-3-methylphenylsulfonyl)-2,5-dimethyl-4-((S)—N,3,3-trimethyl-2-((S)-3-methyl-2-(methylamino)-3-phenylbutanamido)butanamido)hex-2-enamide], the 50% effective concentration (EC50) in the test on Jurkat cells (setting [3]) was roughly 0.118 nM; in the test on Jurkat cells (setting [4]), 0.12 nM.

`CN[C@H](C(=O)N[C@H](C(=O)N(C)[C@H](/C=C(\C)C(=O)NS(=O)(=O)c1ccc(N)c(F)c1)C(C)C)C(C)(C)C)C(C)(C)c1ccccc1` [Compound 112, (S,E)-N-(4-amino-3-fluorophenylsulfonyl)-2,5-dimethyl-4-((S)—N,3,3-trimethyl-2-((S)-3-methyl-2-(methylamino)-3-phenylbutanamido)butanamido)hex-2-enamide]: the EC50 with Jurkat cells (setting [3]) and in the test with Jurkat cells (setting [4]) was 0.064 nM in each case.

On to `CN[C@H](C(=O)N[C@H](C(=O)N(C)[C@H](/C=C(\C)C(=O)NS(=O)(=O)c1ccc(N)c(C(F)(F)F)c1)C(C)C)C(C)(C)C)C(C)(C)c1ccccc1` [Compound 114, (S,E)-N-(4-amino-3-(trifluoromethyl)phenylsulfonyl)-2,5-di methyl-4-((S)—N,3,3-trimethyl-2-((S)-3-methyl-2-(methylamino)-3-phenylbutanamido)butanamido)hex-2-enamide], for which the concentration giving a half-maximal response (EC50) in the test on Jurkat cells (setting [3]) and with Jurkat cells (setting [4]) was 0.056 nM throughout.

Regarding `C/C(=C\[C@H](C(C)C)N(C)C(=O)[C@@H](NC(=O)[C@@H]1CCCCN1C(C)C)C(C)(C)C)C(=O)NS(=O)(=O)CCCS` [Compound 115, (S)-1-isopropyl-N—((S)-1-(((S,E)-6-(3-mercaptopropylsulfonamido)-2,5-dimethyl-6-oxohex-4-en-3-yl)(methyl)amino)-3,3-dimethyl-1-oxobutan-2-yl)piperidine-2-carboxamide], the EC50 with HCC1954 cells (setting [1]) is 172 nM; in the test on Jurkat cells (setting [2]) it was 36 nM.

Regarding `CN[C@H](C(=O)N[C@H](C(=O)N(C)[C@H](/C=C(\C)C(=O)NS(C)(=O)=O)C(C)C)C(C)(C)C)C(C)(C)c1ccccc1` [Compound E, (S,E)-2,5-dimethyl-N-(methylsulfonyl)-4-((S)—N,3,3-trimethyl-2-((S)-3-methyl-2-(methylamino)-3-phenylbutanamido)butanamido)hex-2-enanmide], the concentration for a half-maximal effect (EC50) with HCC1954 cells (setting [1]) is 0.79 nM; in the test on HCC1954 cells (Table 1, HCC1954 cells (HER2+), three nights, read-out: HCC1954 cells (HER2+) EC50) it was 0.79 nM; in the test on HCC1954 cells (Table 2, HCC1954, read-out: HCC1954 EC50) it was 0.79 nM; with Jurkat cells (Homo sapiens, Jurkat, Table 1, Jurkat cells (HER2−), three nights, read-out: Jurkat cells (HER2−) EC50) it was 1.67 nM; in the test with Jurkat cells (Homo sapiens, Jurkat, Table 2, Jurkat, read-out: Jurkat EC50) it was 1.67 nM; in the test with Jurkat cells (setting [2]), 1.67 nM.
